Values joined by “and” are separate entries in the source; they are usually repeats but may differ in a detail not shown here. Equal values may be shown once.
Test: xn = mol fraction of the nth substance listed

Cc1cccc(C)c1 + CCCCO
308.15 K, 101 kPa
Conditions | viscosity [mPa·s]
x2 = 0.0525 | 0.471
x2 = 0.1036 | 0.54
x2 = 0.19 | 0.553
x2 = 0.307 | 0.583
x2 = 0.4171 | 0.631
x2 = 0.5209 | 0.733
x2 = 0.619 | 0.815
x2 = 0.7117 | 0.947
x2 = 0.7995 | 1.131
x2 = 0.8828 | 1.323
x2 = 0.9619 | 1.556

O=S1(=O)CCCC1 + CCCCOC(C)=O
viscosity [mPa·s], 101 kPa
Conditions | x1 = 0.3402 | x1 = 0.7887 | x2 = 0.0164
303.15 K | – | 4.275 | –
308.15 K | 1.145 | – | 7.925

Nc1ccccc1Cl + CCCCOCCO
303.15 K, 101 kPa
Conditions | viscosity [mPa·s]
x1 = 0.1461 | 3.066
x1 = 0.2298 | 3.194
x1 = 0.3377 | 3.344
x1 = 0.4573 | 3.496
x1 = 0.563 | 3.619
x1 = 0.6667 | 3.722
x1 = 0.7494 | 3.786
x1 = 0.8351 | 3.833
x1 = 0.9459 | 3.859

O=S1(=O)CCCC1 + CCCCOCCO
303.15 K, 101 kPa
Conditions | viscosity [mPa·s]
x1 = 0.0491 | 1.94
x1 = 0.0999 | 1.87
x1 = 0.2 | 2.002
x1 = 0.2998 | 2.501
x1 = 0.3503 | 2.882
x1 = 0.3999 | 3.311
x1 = 0.4495 | 3.777
x1 = 0.4999 | 4.28
x1 = 0.5997 | 5.339
x1 = 0.7015 | 6.489
x1 = 0.7991 | 7.639
x1 = 0.8987 | 8.898
x1 = 0.9504 | 9.535

NCCCO + CCCC[N+](CCCC)(CCCC)CCCC.[Br-]
viscosity, 101.33 kPa
Conditions | 293.15 K | 298.15 K | 303.15 K | 308.15 K | 313.15 K | 318.15 K | 323.15 K
x1 = 0.8 | 113.9 mPa·s | 84.69 mPa·s | 63.71 mPa·s | 49.65 mPa·s | 38.79 mPa·s | 30.76 mPa·s | 24.94 mPa·s
x1 = 0.9 | 79.29 mPa·s and 65.55 mPa·s | 60.03 mPa·s and 50.16 mPa·s | 46.01 mPa·s and 38.6 mPa·s | 35.84 mPa·s and 29.98 mPa·s | 28.31 mPa·s and 23.97 mPa·s | 22.73 mPa·s and 19.27 mPa·s | 18.62 mPa·s and 15.76 mPa·s

CCCCOCCOCCO + CCCO
viscosity [mPa·s], 101 kPa
Conditions | 298.15 K | 308.15 K | 318.15 K
x1 = 0.011 | 1.95 | 1.525 | 1.246
x1 = 0.042 | 2.019 | 1.576 | 1.293
x1 = 0.074 | 2.098 | 1.633 | 1.337
x1 = 0.1191 | 2.202 | 1.711 | 1.409
x1 = 0.1629 | 2.325 | 1.802 | 1.488
x1 = 0.2086 | 2.446 | 1.889 | 1.576
x1 = 0.2587 | 2.587 | 2.024 | 1.669
x1 = 0.3152 | 2.748 | 2.149 | 1.767
x1 = 0.3289 | 2.787 | 2.179 | 1.795
x1 = 0.3796 | 2.959 | 2.283 | 1.89
x1 = 0.4568 | 3.213 | 2.435 | 2.034
x1 = 0.5093 | 3.371 | 2.548 | 2.123
x1 = 0.5833 | 3.615 | 2.714 | 2.263
x1 = 0.6316 | 3.764 | 2.814 | 2.346
x1 = 0.6882 | 3.928 | 2.932 | 2.442
x1 = 0.7604 | 4.153 | 3.085 | 2.564
x1 = 0.8285 | 4.361 | 3.228 | 2.677
x1 = 0.9045 | 4.598 | 3.388 | 2.797
x1 = 0.9511 | 4.734 | 3.481 | 2.875

Cc1cccc(C)c1 + CCCO
viscosity [mPa·s], 100 kPa
Conditions | 298.15 K | 308.15 K
x2 = 0.0641 | 0.5986 | 0.5469
x2 = 0.125 | 0.604 | 0.5561
x2 = 0.2247 | 0.6335 | 0.5935
x2 = 0.3538 | 0.694 | 0.633
x2 = 0.4693 | 0.779 | 0.6938
x2 = 0.5733 | 0.888 | 0.7826
x2 = 0.6675 | 1.006 | 0.8918
x2 = 0.7531 | 1.144 | 0.964
x2 = 0.8313 | 1.316 | 1.102
x2 = 0.903 | 1.509 | 1.277
x2 = 0.969 | 1.796 | 1.464

O=S1(=O)CCCC1 + CCCO
viscosity [mPa·s], 101 kPa
Conditions | x1 = 0.0761 | x1 = 0.1702 | x1 = 0.2436 | x1 = 0.3357 | x1 = 0.4393 | x1 = 0.5374 | x1 = 0.6403 | x1 = 0.7554 | x1 = 0.8835
303.15 K | 1.648 | 1.731 | 1.863 | 2.093 | 2.443 | 2.894 | 3.567 | 4.714 | 6.855
308.15 K | 1.477 | 1.551 | 1.671 | 1.876 | 2.191 | 2.595 | 3.198 | 4.214 | 6.07
313.15 K | 1.329 | 1.399 | 1.506 | 1.691 | 1.976 | 2.342 | 2.884 | 3.788 | 5.424

CCCCOCCOCCO + CCN(CC)CC
viscosity [mPa·s], 100 kPa
Conditions | 298.15 K | 303.15 K | 308.15 K
x1 = 0.05083 | 0.4832 | 0.4499 | 0.4246
x1 = 0.1 | 0.6109 | 0.5597 | 0.5234
x1 = 0.15 | 0.7524 | 0.6836 | 0.637
x1 = 0.2 | 0.9081 | 0.8131 | 0.7543
x1 = 0.3 | 1.246 | 1.108 | 1.021
x1 = 0.3999 | 1.641 | 1.447 | 1.324
x1 = 0.5 | 2.105 | 1.837 | 1.669
x1 = 0.5999 | 2.629 | 2.278 | 2.067
x1 = 0.6995 | 3.213 | 2.776 | 2.496
x1 = 0.8 | 3.822 | 3.271 | 2.93
x1 = 0.8998 | 4.474 | 3.817 | 3.419
x1 = 0.9499 | 4.793 | 4.075 | 3.631
